From US10570099B2, “Salts of an epidermal growth factor receptor kinase inhibitor” (Celgene CAR LLC, priority 2012, dated 2020)

Assays:
[1] = Hygroscopicity judged from TGA / water retained after drying; format: physicochemical
Method: For thermogravimetric analysis (TGA), approximately 5-10 mg of material was accurately weighed into an open aluminium pan and loaded into a simultaneous thermogravimetric/differential thermal analyser (TG/DTA) and held at room temperature. The sample was then heated at a rate of 10° C./min from 25° C. to 300° C. during which time the change in sample weight was recorded along with any differential thermal events (DTA). Nitrogen was used as the purge gas, at a flow rate of 100 cm^3/min.

[2] = Salt disproportionation study (slurry in deionized water); format: physicochemical; settings: deionized water slurry
Method: The pH of the supernatant was also monitored.
The hydrobromide salt was slurried in deionised water at ambient temperature (ca. 22° C.). […] The pH of the supernatant was also monitored.

[3] = Dog PK Study 1 (cross-over, fasted); format: in vivo, beagle dogs; settings: fasted dogs, oral, 24.5-28.5 mg/kg QD
Method: Compound 1 free base and compound 2, as the Form I monohydrobromide (HBr) salt, were evaluated in a cross-over dog PK study. Compound 1 free base capsule consisted of compound 1 free base in Vitamin E TPGS and PEG 400 filled into a capsule. The Form I hydrobromide salt capsule consisted of Form I HBr alone filled into a capsule.
Compound 1 free base capsule and Form I HBr capsule were dosed orally at 28.5 and 24.5 mg/kg (as active) QD, respectively, to three fasted male non-naïve beagle dogs (body weight range: 10.1-10.8 kg) with a 5-day washout period. Approximately 5 mL of tap water was orally administered to encourage swallowing and ensure delivery of capsules into the stomach. Plasma samples were collected at pre-dose and 0.5, 1, 2, 4, 6, 8, 12 and 24 hours post dose. The plasma concentrations of compound 1 were determined by a liquid chromatography-tandem mass spectrometry (LC/MS/MS) method.

[4] = Slurry in pH 6.2 aqueous medium (conversion to unknown solid form); format: physicochemical; settings: slurry in aqueous pH 6.2 medium, ambient, XRPD
Method: In attempts to characterize this form, as well as establish the rate of conversion to this form while slurrying the material, the following experiments were carried out. Initially, approximately 100 mg of the hydrobromide (1 equiv.) material was slurried in a pH 6.2 aqueous solution at ambient and XRPD analysis was carried out at time points 5 min., 1 hr, 2 hrs, 4 hrs and 8 hrs. Further analysis was then also carried out on the converted material.

[5] = Dynamic vapour sorption (DVS); format: physicochemical
Method: For dynamic vapour sorption (DVS), approximately 10-20 mg of sample was placed into a wire mesh vapour sorption balance pan and loaded into a DVS-1 dynamic vapour sorption balance by Surface Measurement Systems. The sample was subjected to a ramping profile from 20-90% relative humidity (RH) at 10% increments, maintaining the sample at each step until a stable weight had been achieved (99.5% step completion). After completion of the sorption cycle, the sample was dried using the same procedure, but all the way down to 0% RH and finally taken back to the starting point of 20% RH. The weight change during the sorption/desorption cycles were plotted, allowing for the hygroscopic nature of the sample to be determined.

[6] = Dog PK Study 2 (gastric pH adjustment, food effect); format: in vivo, beagle dogs; settings: dogs, oral, 30 mg/kg QD, both low and high gastric pH conditions
Method: Compound 1 free base and compound 2, as the Form I monohydrobromide (HBr) salt, were evaluated in a cross-over dog PK study in which male dogs were pre-treated with either pentagastrin (to decrease gastric pH) or famotidine (to increase gastric pH) prior to oral dosing to control gastric pH. In addition, the effect of food on the systemic exposure to compound 1 was also evaluated in dogs receiving Form I HBr with pentagastrin pre-treatment. Compound 1 free base capsule consisted of compound 1 free base in Vitamin E TPGS and PEG 400 filled into a capsule. The Form I hydrobromide salt capsule consisted of Form I HBr alone filled into a capsule.
There was a minimum 6-day washout between dosing. On the day of dosing under fed condition, dogs were given 60 gram of a high fat diet (Harlan Teklad 2027C) and allowed to consume all of the food within 15-20 minutes. The animals were given a 10-minute rest period and then the capsule doses were administered. Plasma samples were collected at pre-dose and 0.5, 1, 2, 4, 6, 8, 12 and 24 hours post dose.

[7] = Intrinsic dissolution of compressed discs; format: physicochemical; settings: early time points
Method: A Sotax AT7 dissolution bath (USP 2, EP 2 apparatus) was used for the dissolution study in which paddles were used to stir the media. All tests were carried out at 37° C. and a paddle speed of 100 rpm.
(§1) Approximately 100-120 mg of each form was compressed into discs by placing the material into a die (diameter: 13 mm) and compressing the die under 5 tons of pressure in a hydraulic press for ca. 2 minutes. A Sotax AT7 (conformed to EP2 and USP2) dissolution instrument was used containing paddles to stir the media at 100 rpm. Dissolution media of pH 3 (1% SDS) and pH 4.5 (1% SDS) were prepared using citrate/phosphate buffer. All materials were tested in 750 ml of the buffer medium. Discs were added at time=0 seconds and allowed to sink to the bottom of the dissolution vessel before stirring began. ca. 1 ml aliquots of media were extracted from the dissolution vessels at times 1, 5, 10, 15, 30, 60, 120, 240 minutes and 24 hours, and tested for dissolved salt concentration by HPLC-UV. The dissolution tests were carried out in duplicate. For both dissolution media, the peak areas for the initial time points (up to 15 minutes), fell below the limit of quantification, however, when plotting Dissolution rate vs. time, the steepest part of the curve occurs during these early time points.
as §1, with “material” for “each form”, “API” for “dissolved salt”

## Br.C=CC(=O)Nc1cccc(Nc2nc(Nc3ccc(N4CCN(C(C)=O)CC4)cc3OC)ncc2C(F)(F)F)c1 [Form I hydrobromide salt]
[1]
  hygroscopicity (TGA, water retained at ambient conditions): slightly hygroscopic
[2]; 1 hr
  pH of the supernatant: pH 1
[2]; 24 hrs
  pH of the supernatant: pH 1
[2]; 48 hrs
  pH of the supernatant: pH 1
[3]
  compound 1 exposure (AUC and Cmax) compared to the free base form: significantly higher
[4]
  time of conversion to the unknown solid form: 2 to 4 h
[5]; after DVS cycles, listed as hydrobromide salt
  post DVS XRPD analysis (polymorphic form): remain consistent
[5]; between 20 and 70% RH
  water uptake (DVS): 0.97%
[6]
  compound 1 exposure compared to the free base form: significantly higher
[7]; pH 3.0 (1% SDS), tablet 1
  intrinsic dissolution value: approximately 0.35 mg/cm^2/min
[7]; pH 3.0 (1% SDS), tablet 2
  intrinsic dissolution value: approximately 0.35 mg/cm^2/min
[7]; pH 4.5 (1% SDS), tablet 1
  intrinsic dissolution value: approximately 0.27 mg/cm^2/min
[7]; pH 4.5 (1% SDS), tablet 2
  intrinsic dissolution value: ~0.28 mg/cm^2/min
